Values of other authors in patent US20130096316A1, “Novel Method for Preparation of Bisnorcymerine and Salts Thereof” (QR PHARMA, INC., priority 2011, published 2013).

Target: human BChE (Homo sapiens, UniProt P06276)
Details: ratio of the AChE IC50 to the BChE IC50; cited from Yu et al., 1999

Chain of human BChE (P06276 29-602): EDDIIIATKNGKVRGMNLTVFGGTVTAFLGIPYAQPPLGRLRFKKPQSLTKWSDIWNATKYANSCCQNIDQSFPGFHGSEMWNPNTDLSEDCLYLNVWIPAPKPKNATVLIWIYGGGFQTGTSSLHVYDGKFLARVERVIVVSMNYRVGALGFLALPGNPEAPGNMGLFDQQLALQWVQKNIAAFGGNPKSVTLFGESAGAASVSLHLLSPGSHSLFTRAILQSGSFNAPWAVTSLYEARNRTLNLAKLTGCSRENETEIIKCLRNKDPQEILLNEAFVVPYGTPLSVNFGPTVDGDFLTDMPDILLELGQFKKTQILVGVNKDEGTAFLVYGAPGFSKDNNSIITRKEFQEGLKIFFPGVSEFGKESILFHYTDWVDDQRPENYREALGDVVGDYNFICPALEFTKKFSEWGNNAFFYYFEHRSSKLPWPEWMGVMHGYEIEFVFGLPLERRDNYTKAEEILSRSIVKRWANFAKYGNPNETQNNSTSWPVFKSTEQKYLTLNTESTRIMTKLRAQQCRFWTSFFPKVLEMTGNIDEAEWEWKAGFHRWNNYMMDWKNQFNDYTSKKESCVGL

SMILES: CC(C)c1ccc(NC(=O)Oc2ccc3c(c2)[C@]2(C)CCNC2N3)cc1 (stereo partly drawn) [Compound 1, (3aS)-3a-methyl-1,2,3,3a,8,8a-hexahydropyrrolo[2,3-b]indol-5-yl (4-isopropylphenyl)carbamate]
- selectivity for inhibition of BChE as compared to AChE: 110 fold
